Test results reported in ChEMBL document CHEMBL3797023, “Irregularities in enzyme assays: The case of macrophage migration inhibitory factor” (Bioorg Med Chem Lett, 2016).
Converted amounts (≈) assume the structure as drawn.

assay: Aqueous solubility of compound at pH 6.5 by shake-flask method; assay type: physicochemical; conditions: aqueous medium

| solubility thermodynamic [µg/mL] | SMILES |
| --- | --- |
| 21.9 (≈ 85.8 µM) | Cc1ccc2oc(=O)n(Cc3cccc(O)c3)c2c1 |
| < 1 | O=C(O)c1cccc(NC(=S)NC(=O)c2ccc(-c3ccccc3)cc2)c1 |
| 6 (≈ 15.2 µM) | COc1cc(-c2nc3ccccc3s2)cc(Br)c1OCC(=O)O |
| < 5 | COc1ccc(C(=O)O)cc1NC(=S)NC(=O)c1cc2ccccc2o1 |
| 27.6 (≈ 72.4 µM) | Oc1cc2c(cc1C(c1ccc(C(F)(F)F)cc1)N1CCOCC1)OCO2 (configuration not stated) |
| 3.6 (≈ 9.93 µM) | COCCOc1ccc2nc(-c3cn(-c4ccc(O)cc4)nn3)ccc2c1 |
| 48.5 (≈ 105 µM) | Oc1ccc(-n2cc(-c3ccc4cc(OCCOCCN5CCOCC5)ccc4n3)nn2)cc1 |
